“And” between values parts separate entries of the source, which are not always exact repeats. Identical values can stand only once.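 Following 48 hours of exposure in 96-well plates, responses at five concentrations were used to interpolate endpoints linearly. GI50 marks 50% less growth. TGI: total growth inhibition.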
How the values were obtained:
Test in all cases: NCI anticancer screen, dose series, 48 h
[1] = test system: ACHN renal
[2] = test system: HOP-62 NSCLC
[3] = test system: HOP-92 NSCLC
[4] = test system: MDA-MB-231 breast
[5] = test system: CCRF-CEM leukemia
[6] = test system: SK-OV-3 ovarian
[7] = test system: LOX IMVI melanoma
[8] = test system: IGROV1 ovarian
[9] = test system: SNB-78 CNS
[10] = test system: LXFL 529 NSCLC
[11] = test system: M19-MEL melanoma
[12] = test system: DLD-1 colon

| Compound | GI50 [1] | TGI [1] | GI50 [2] | TGI [2] | GI50 [3] [nM] | TGI [3] | GI50 [4] | TGI [4] | GI50 [5] | TGI [5] | GI50 [6] | TGI [6] | GI50 [7] | TGI [7] | GI50 [8] | TGI [8] | TGI [9] [µM] | TGI [10] [µM] | TGI [11] [µM] | TGI [12] [µM] |
| --- | --- | --- | --- | --- | --- | --- | --- | --- | --- | --- | --- | --- | --- | --- | --- | --- | --- | --- | --- | --- |
| C/C=C(/C)C(=O)OC1C=C(CO)C(=O)C(OC(=O)/C(C)=C\C)C1C(C)C (centres undefined) | 541 nM | 1.69 µM | 2030 nM | 3.73 µM | 528 | 1.15 µM | 751 nM | 1.9 µM | 321 nM | 4.19 µM | 2.27 µM | 4.48 µM | 604 nM | 1.75 µM | 960 nM | 2.43 µM |  |  |  |  |
| O=C(N/N=C/c1cc2ccccc2c2ccccc12)c1cc(O)c(O)c(O)c1 | 3250 nM | 12.6 µM | 3370 nM | 12.4 µM | 2100 | 7.19 µM | 2700 nM | 10.1 µM | 2870 nM | > 100 µM | 4.31 µM | 15.6 µM | 2380 nM | 5.98 µM | 4140 nM | 20.5 µM |  |  |  |  |
| O=S(=O)(Nc1ccc(Cl)c(C(F)(F)F)c1)c1ccc(-c2cnc(C3CC3)o2)cc1 | 789 nM | 6.88 µM | 615 nM | 4.88 µM | 1040 | 4.16 µM | 1230 nM | 3.64 µM | 285 nM | > 25.1 µM | 0.919 µM | 5.18 µM | 394 nM | 3.22 µM | 507 nM | 5.96 µM |  |  |  |  |
| CSc1s[s+]c(SC)c1[O-] |  | > 100 µM |  | > 100 µM |  | > 100 µM |  |  |  | > 100 µM |  | > 100 µM |  |  |  | > 100 µM | > 100 | 38.7 | 29.5 | 33.6 |
| O=[N+]([O-])c1ccc(N(CCO)CCO)c2c1no[n+]2[O-] | 768 nM | 5.12 µM | 1390 nM | 4.16 µM | 1220 | 5.82 µM | 2290 nM | 14.3 µM | 704 nM | 4.71 µM | 1.21 µM | 4.14 µM | 1030 nM | 2.43 µM | 1750 nM | 7.42 µM |  |  |  |  |
| CCN(C)S(=O)(=O)Nc1cccc(Nc2ncnc3cc(NC(=O)CCl)ccc23)c1Cl | 3380 nM | 7.67 µM | 3420 nM | 7.73 µM | 3400 | 7.95 µM | 2590 nM | 7.49 µM | 656 nM | 3.77 µM | 5.58 µM | 19.1 µM | 1010 nM | 4.44 µM | 3500 nM | 8.62 µM |  |  |  |  |
| Cc1ccc(NC2=C(Cl)C(=O)c3nc(C)ccc3C2=O)cc1 | 1590 nM | 2.97 µM | 836 nM | 2.58 µM | 1400 | 2.93 µM | 1410 nM | 2.96 µM | 2650 nM | > 100 µM | 11.9 µM | 24.6 µM | 711 nM | 2.22 µM | 1540 nM | 3.35 µM |  |  |  |  |
| N#Cc1ccc(-n2cnc(NC(=O)[C@H]3CCN(C#N)C3)c2)cc1 | 2550 nM | > 100 µM | 2280 nM | 15.5 µM | 1920 | 6.98 µM | 1910 nM | > 91.6 µM | 1030 nM | > 100 µM | 3.77 µM | > 51.4 µM | 1270 nM | > 100 µM | 2010 nM | > 100 µM |  |  |  |  |
| Cc1cc(N2CCN(C)CC2)nc(NC2CCCC(Nc3ccnc4cc(Cl)ccc34)C2)n1 (centres undefined) | 1860 nM | 3.51 µM | 2220 nM | 6.03 µM | 1670 | 3.49 µM | 1780 nM | 4.25 µM | 1780 nM | 7.34 µM | 3.35 µM | 11.5 µM | 1770 nM | 3.53 µM | 2240 nM | 7.85 µM |  |  |  |  |
| CC/C(=C(\c1ccc(O)cc1)c1ccc(OCCNC)cc1)c1ccccc1 | 2110 nM and 1650 nM and 1940 nM | 4.85 µM and 3.48 µM and 4.1 µM | 1880 nM and 1830 nM and 1710 nM | 3.35 µM and 3.32 µM and 3.42 µM |  | 2.04 µM and 2.96 µM and 7.46 µM | 1890 nM and 1650 nM and 1610 nM | 4.31 µM and 3.52 µM and 3.22 µM | 2960 nM and 2560 nM and 2750 nM | 11 µM and 8.6 µM and 7.58 µM | 5.14 µM and 3.69 µM and 2.08 µM | 13.6 µM and 9.3 µM and 5.09 µM | 1470 nM and 1450 nM and 1730 nM | 2.79 µM and 2.77 µM and 3.22 µM | 1930 nM and 1650 nM and 2380 nM | 4.13 µM and 3.25 µM and 5.4 µM |  |  |  |  |
| Cc1ccc(C(=O)/C=C/c2ccccc2Cl)cc1 |  | 29.4 µM |  | > 100 µM |  | 63.5 µM |  |  |  | 42.6 µM |  | 99.5 µM |  |  |  | 32.9 µM | 46.8 | 28.7 | 33.5 | 36 |
| O=C(Nc1cc(C(F)(F)F)ccc1Cl)C(=O)C(C(=O)c1ccc2ccccc2c1)C1OC(=O)c2ccccc21 (centres undefined) |  | > 86.7 µM |  | 16.1 µM |  | 28.1 µM |  |  |  | 33.7 µM |  | > 100 µM |  | 25.7 µM |  | > 92.5 µM |  | 20.5 | 46.4 | 36.3 |
| Cc1cccc(NC(=O)CC2C(=O)Nc3ccccc3S2(=O)=O)c1C (centres undefined) |  | 70.3 µM |  | 52.8 µM |  | 37.9 µM |  |  |  |  |  | 37.7 µM |  |  |  | 60 µM | 77.3 | > 100 | > 100 | > 100 |
| C#C[C@]1(O)CC[C@H]2[C@@H]3CC=C4c5nc(Nc6ccc(OC)cc6OC)sc5CC[C@]4(C)[C@H]3CC[C@@]21C | 2060 nM | 10.2 µM | 1930 nM | 7.37 µM | 2100 | 7 µM | 1260 nM | 5.34 µM | 544 nM | 11 µM | 1.83 µM | 7.02 µM | 1450 nM | 2.97 µM | 1990 nM | 7.11 µM |  |  |  |  |
| CC1=CCC2(C#N)CCC1C2=O (centres undefined) |  | > 100 µM |  | > 100 µM |  |  |  |  |  | > 100 µM |  | > 100 µM |  | > 100 µM |  | > 100 µM | > 100 | > 100 | > 100 | > 100 |
| NC(=O)c1c(OCc2c(F)cc(Br)cc2F)nsc1NC(=O)NCCCCN1CCCC1 | 1180 nM | 5.25 µM | 1580 nM | > 10 µM | 323 | > 10 µM | 1550 nM | 5.02 µM | 2770 nM | 8.17 µM | > 10 µM | > 10 µM | 1160 nM | 2.5 µM | 327 nM | 4.29 µM |  |  |  |  |
